Patent US20240391909A1, “DISULFIDE COMPOUND, POLYSULFIDE COMPOUND, AND USE THEREOF” (KUMIAI CHEMICAL INDUSTRY CO., LTD., priority 2021, published 2024)

Test system: Helicoverpa armigera
Test: Insecticidal activity test against Helicoverpa armigera (cabbage leaf dip)
Type: in vivo
Conditions: hatched larvae, 25° C., after 6 days
Experimental: A wettable powder prepared in accordance with Formulation Example 1 was diluted with water to a concentration of 500 ppm as the active ingredient. A cabbage leaf was dipped in the resultant chemical solution, air-dried, and then put in a plastic cup. Five hatched larvae of Helicoverpa armigera were released therein, and the resultant was covered. Thereafter, the resultant was placed in a constant temperature chamber of 25° C., and after 6 days, the number of dead larvae was counted to obtain a corrected mortality rate in accordance with the following equation of Expression 1. The test was performed in duplicate.

[1] = 500 ppm active ingredient, same test run with comparative formula A, 2-a retested at the same time

| Compound | corrected mortality rate (500 ppm active ingredient (wettable powder diluted with water), first test) [%] | corrected mortality rate [1] [%] |
| --- | --- | --- |
| Cn1nc(C(F)(F)F)c(CSSCc2c(C(F)(F)F)nn(C)c2OC(F)F)c1OC(F)F [Compound 2-a, 1,2-bis[(5-difluoromethoxy-1-methyl-3-trifluoromethylpyrazol-4-yl)methyl]disulfide] | 75 | 89 |
| Cc1cc(CSSCc2cc(C)[nH]n2)n[nH]1 [formula A, reference compound] |  | 44 |
